Data published in US8815947B2, “Methods of treating metabolic disorders” (Case Western Reserve University, priority 2007, dated 2014).
Like-named read-outs stand apart in the source and are kept apart here. Each block holds one compound with its values, some of them ahead of it.

Assays:
[1] = system: PPARβ/δ target genes FIAF, ADRP, and PDK-1; experiment: Q-PCR of endogenous PPARβ/δ target genes in HaCaT cells; format: cell-based, human; details: for expression of mRNA of PPARβ/δ target genes FIAF, ADRP and PDK-1: normalized to 18s mRNA
Experimental: (§1) FIG. 1C illustrates graphs showing the levels of mRNA of the PPARβ/δ target genes FIAF, ADRP, and PDK-1 expressed from HaCaT cells treated with the denoted ligands (0.1 μM, 4 hr). Levels of mRNA of the PPARβ/δ target genes FIAF, ADRP, and PDK-1 were analyzed by Q-PCR and normalized to 18s mRNA. FIG. 1D illustrate a graph showing the level of ADRP mRNA in HaCaT cells that were transfected with control siRNA or PPARβ/δ siRNA (24 hr.), and then treated with the denoted ligands (0.1 μM, 4 hr). ADRP mRNA was analyzed by QPCR and normalized to 18s mRNA. […] FIG. 1F illustrates a graph of the total activation of HaCaT cells transfected with a RARE-driven luciferase reporter. Cells were treated with RA at the denoted concentrations (15 hr), lysed, and luciferase activity measured and corrected for β-galactosidase activity. Data were normalized to the basal activity. […] FIG. 1G illustrates a graph of the level of expression of mRNA of the RAR target gene Cyp26α in cells that were treated with the denoted ligands. Expression of mRNA of the RAR target gene Cyp26α was analyzed by Q-PCR and normalized to 18s mRNA.
Quantitative real-time PCR (Q-PCR). RNA was extracted and cDNA generated using Gene Amp RNA PCR (Applied Biosystems, Foster City, Calif.). Q-PCR analyses for PDK-1 were conducted using TaqMan chemistry and Assays on Demand probes (Applied Biosystems, PDK1-Hs00176884_ml, ADRP-Hs00765634_ml, FIAF-Hs00211522_ml), Cyp26a-Hs01075671_gl, BTG2-Hs00198887_ml, cyclin D1 0 Hs00277039-ml. […] Analyses were carried out using the relative standard curve method (Applied Biosystems Technical Bulletin no. 2).

FABP5 [2] = biological target: T1, FABP5 (Homo sapiens, UniProt Q01469); experiment: Fluorescence-based binding assay (ANS titration and competition); design: GST; made in house; host or cells: E. coli BL21
Target sequence in this assay (Q01469 whole entry, species assumed): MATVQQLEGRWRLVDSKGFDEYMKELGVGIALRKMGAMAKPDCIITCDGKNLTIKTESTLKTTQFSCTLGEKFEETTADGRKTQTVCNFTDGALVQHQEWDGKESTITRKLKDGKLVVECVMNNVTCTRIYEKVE
Experimental: Binding assays were carried out by fluorescence titrations using a Fluorolog 2 DMIB spectrofluorometer (SPEX Instruments, Edison, N.J.). […] In the first step, Kd for the association of the protein with the fluorescent fatty acid probe ANS was measured. Protein (1 μM) was titrated with ANS from a concentrated solution in ethanol. Ligand binding was monitored by following the increase in the fluorescence of the ligand upon binding to the protein (λex-370 nm; λem-475 nm). Titration curves were analyzed (Norris and Li, 1998) to yield the number of binding sites and Kd. Kds for binding of non-fluorescent ligands were then measured by monitoring their ability to compete with fluorescent probes for binding. […] Kds were extracted from the EC50 of the competition curve and the measured Kd for the probe. Analyses were carried out using Origin 7.5 software (MicroCal Software Inc., Northampton, Mass.).

GFP-FABP5 = biological target: T2, GFP-FABP5 (Homo sapiens, UniProt Q01469); experiment: Confocal fluorescence microscopy of GFP-FABP5 in live COS-7 cells; format: cell-based; details: ligand 1 μM, 30 min
T2 construct: expressed in transfected cells; host or cells: COS-7
T2 sequence (Q01469 whole entry): as the sequence (Q01469 whole entry, species assumed) above
Experimental: Images were acquired from live cells before and after a 30 min. treatment with RA (1 μM). […] Forty cells of each treatment group were analyzed (mean±SEM).
Confocal fluorescence microscopy. COS-7 cells were plated in 35 mm glass bottom microwell dishes (Mattek) in DMEM containing 5% charcoal-treated FBS (75,000 cells per plate), grown for 12 hr. and transfected using Fugene (Roche) with an expression vector harboring GFP-tagged FABP5 (EGFP, 250 ng DNA per plate). Following a 48 hr incubation, medium was replaced with serum-free DMEM, and live cells were imaged using a Leica TCS SP2 confocal microscope equipped with a 40× oil immersion lens. After imaging, cells were treated with ligands (1 μM), incubated at 37° C. for 30 min and imaged again. An average of 40 cells were analyzed using ImageJ (National Institute of Health).

Akt = experiment: Immunoblots of phospho-Akt in HaCaT cells; format: cell-based, human; details: ligand 0.1 μM, 12 hr, immunoblot
Experimental: (§2) FIG. 1B illustrates a graph showing the results of the total activation of cells cotransfected with either control siRNA or siRNA for PPARβ/δ, and then treated with RA at the denoted concentrations. FIG. 1C illustrates graphs showing the levels of mRNA of the PPARβ/δ target genes FIAF, ADRP, and PDK-1 expressed from HaCaT cells treated with the denoted ligands (0.1 μM, 4 hr). Levels of mRNA of the PPARβ/δ target genes FIAF, ADRP, and PDK-1 were analyzed by Q-PCR and normalized to 18s mRNA. FIG. 1D illustrate a graph showing the level of ADRP mRNA in HaCaT cells that were transfected with control siRNA or PPARβ/δ siRNA (24 hr.), and then treated with the denoted ligands (0.1 μM, 4 hr). ADRP mRNA was analyzed by QPCR and normalized to 18s mRNA. Data are mean±SEM, n=3. FIG. 1E illustrates immunoblots of […], total Akt, and β-tubulin in cells treated with denoted ligands (0.1 μM, 12 hr). Data from a representative experiment, which was repeated 4 times with similar results are shown. FIG. 1F illustrates a graph of the total activation of HaCaT cells transfected with a RARE-driven luciferase reporter. Cells were treated with RA at the denoted concentrations (15 hr), lysed, and luciferase activity measured and corrected for β-galactosidase activity. […] Expression of mRNA of the RAR target gene Cyp26α was analyzed by Q-PCR and normalized to 18s mRNA. […]

PPARβ/δ [3] = biological target: T3, PPARβ/δ (Homo sapiens, UniProt Q03181); experiment: Transactivation assay in COS-7 cells, PPRE reporter with PPARβ/δ expression vector; format: cell-based; design: expressed in transfected cells; host or cells: COS-7; details: COS-7 cells cotransfected with PPARβ/δ expression vector
T3 sequence (Q03181 1-441): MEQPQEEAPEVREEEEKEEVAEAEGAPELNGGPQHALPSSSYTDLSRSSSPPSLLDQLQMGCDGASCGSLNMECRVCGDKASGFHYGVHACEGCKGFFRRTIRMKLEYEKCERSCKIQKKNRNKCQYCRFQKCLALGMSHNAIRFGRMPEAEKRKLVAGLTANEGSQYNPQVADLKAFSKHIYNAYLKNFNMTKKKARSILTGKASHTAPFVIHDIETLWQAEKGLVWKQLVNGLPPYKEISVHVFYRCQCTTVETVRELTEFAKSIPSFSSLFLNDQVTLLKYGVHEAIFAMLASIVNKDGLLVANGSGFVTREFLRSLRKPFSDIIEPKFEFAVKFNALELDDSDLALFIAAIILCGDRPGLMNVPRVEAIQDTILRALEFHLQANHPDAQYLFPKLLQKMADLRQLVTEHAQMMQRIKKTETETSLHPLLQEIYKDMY
Experimental: (§3) Transactivation assays. Cells were cultured in 24-well plates and co-transfected with (PPRE)3-luciferase reporter vector (100 ng), a vector harboring the appropriate iLBP (in pCDNA 3.1, 200 ng), and pCH110, a β-galactosidase expression plasmid (50 ng). In some experiments, an expression vector encoding RAR or PPARβ/δ (in pSG5, 50 ng) was cotransfected. Transfections were carried out using Fugene (Roche Diagnostics Corporation) according to the protocol of the manufacturer. Twenty-four hours following transfection, medium was replaced by DMEM, and ligands were added (RA—in ethanol, other ligands—in dimethylsulfoxide). Following 24 hr of treatment, cells were lysed and lysates assayed for luciferase activity (Luciferase assay system, Promega) which was corrected for β-galactosidase activity. Experiments were carried out in triplicates.

RAR = experiment: Transactivation assay, RARE-driven luciferase reporter in HaCaT cells; format: cell-based, human; details: RA 15 hr
Experimental: as §1
Transactivation assays. Cells were cultured in 24-well plates and co-transfected with (PPRE)3-luciferase reporter vector (100 ng), a vector harboring the appropriate iLBP (in pCDNA 3.1, 200 ng), and pCH110, a β-galactosidase expression plasmid (50 ng). […]

FABP5 [4] = biological target: T1, FABP5; experiment: Subcellular fractionation and immunoblot of endogenous FABP5 in HaCaT cells; format: cell-based; design: To monitor the effects of ligands on the localization of endogenous FABP5 in HaCaT cells; endogenous in cells; host or cells: HaCaT; details: ligand 1 μM, 30 min, subcellular fractionation
Target sequence in this assay (Q01469 whole entry): as the sequence (Q01469 whole entry, species assumed) above
Experimental: FIG. 2C illustrates an immunoblot of HaCaT cells treated with denoted RA or with stearic acid (1 μM, 30 min.). Nuclei were separated from cytosol by subcellular fractionation (Calbiochem ProtoExtract Subcellular Proteome Extraction kit) and analyzed for the presence of FABP5 by immunoblots.
The subcellular localization of FABP5 was then examined. […] To monitor the effects of ligands on the localization of endogenous FABP5 in HaCaT cells, cells were treated with vehicle, RA, or stearate, subjected to subcellular fractionation, and the presence of FABP5 in cytosol and in nuclei examined by immunoblots (FIG. 2C).

PPARβ/δ [5] = biological target: T3, PPARβ/δ; experiment: Transactivation assay, PPRE-driven luciferase reporter in HaCaT cells; format: cell-based; design: endogenous in cells; host or cells: HaCaT
Experimental: The ability of RA to activate PPARβ/δ in the human keratinocyte cell line HaCaT was examined. Transactivation assays were conducted in HaCaT cells transfected with a PPRE-driven luciferase reporter. Cells were treated with the ligands denoted in FIG. 1 for 15 hours, lysed and luciferase activity was measured and corrected for β-galactosidase activity. Data was normalized to the basal activity. Data are mean±SEM, n=3
as §3

[6] = system: PPAR β/δ target genes PDK1 and FIAF; experiment: Real-time PCR of PDK1 and FIAF in cultured adipocytes; format: cell-based
Text: We then used real-time PCR to examine the effects of these ligands on the expression of PDK1 and another known PPAR β/δ target gene, FIAF.

RAR target gene Cyp26α = experiment: Q-PCR of RAR target gene Cyp26α in HaCaT cells; format: cell-based, human; details: normalized to 18s mRNA
Experimental: as §2, with “FIG. 1F illustrates a graph of the total activation of HaCaT cells transfected with a RARE-driven luciferase reporter.” left out
Quantitative real-time PCR (Q-PCR). […]

[7] = system: obese mice fed a high fat/high sucrose diet; experiment: Diet-induced mouse model of obesity, systemic RA treatment; format: in vivo
Experimental: We have now completed a pilot experiment to examine the notion that all-trans-retinoic acid (RA) suppresses obesity and insulin resistance. Experiments were carried out using both cultured adipocytes and a diet-induced mouse model of obesity.
For the in vivo experiments, C57BU6J mice were fed a high fat/high sucrose diet for 16 weeks, when they weighed 1.5 fold more than a cohort fed a standard diet. […] Obese mice were separated into two groups. Both groups were continually maintained on the high fat/high sucrose diet, and one of them was systemically treated with RA.
An important measure of insulin sensitivity is the ability of an animal to clear glucose from plasma. This parameter is assessed by glucose tolerance tests (GTT) in which glucose is administered to the mice and the kinetics of its clearance from blood measured.

[8] = obese mice on high fat diet, RA treated

Structure (SMILES): CC1=C(/C=C/C(C)=C\C=C\C(C)=C\C(=O)O)C(C)(C)CCC1 [9-cis-RA]
- expression of mRNA of PPARβ/δ target genes FIAF, ADRP and PDK-1 ([1]; ligand 0.1 μM, 4 hr): modest response

- Kd (FABP5 [2]; mean±SD, n=3, protein 1 μM titrated with probe, read-out: Kd for FABP5, direct fluorescence titration): 57 ± 7.3 nM
Structure (SMILES): O=S(=O)(O)c1cccc2cccc(Nc3ccccc3)c12 [ANS, Anilinonaphtalene-8-sulphonic acid]

Structure (SMILES): Cc1cc(SCc2sc(-c3ccc(C(F)(F)F)c(F)c3)nc2C)ccc1OCC(=O)O [GW0742]
- subcellular distribution of GFP-FABP5 (nuclear/cytoplasmic) (GFP-FABP5): distinct shift of the protein into the nucleus
- phosphorylation level of Akt (Akt): significantly increased
- Kd (FABP5 [2]): 42.3 ± 4.5 nM

- nuclear localization of endogenous FABP5 (FABP5 [4]): accumulates in the nucleus
- RA-induced PPRE reporter response after PPARβ/δ siRNA (PPARβ/δ [5]; PPARβ/δ expression decreased by about 80% by siRNA): markedly suppressed
- Kd (FABP5 [2]; mean±SD, n=3, extracted from EC50 of competition curve and Kd of probe, read-out: Kd for FABP5, fluorescence competition titration against ANS): 34.8 ± 6.6 nM
Structure (SMILES): CC1=C(/C=C/C(C)=C/C=C/C(C)=C/C(=O)O)C(C)(C)CCC1 [RA, all-trans-retinoic acid]
- expression of PPRE-driven reporter (PPARβ/δ [3]): enhanced the expression of the PPRE-driven reporter in a dose-responsive manner
- expression of RARE-driven luciferase reporter (RAR): upregulated the expression of a reporter gene construct
- subcellular distribution of GFP-FABP5 (nuclear/cytoplasmic) (GFP-FABP5): distinct shift of the protein into the nucleus
- transcription of the PPRE-driven luciferase reporter (PPARβ/δ [5]; ligand 15 hours, GW0742/TTNPB 1 μM, RA at several concentrations): enhanced the expression of the PPRE-driven reporter and did so in a dose responsive manner
- phosphorylation level of Akt (Akt): significantly increased
- expression of FIAF and PDK1 mRNA [6]: enhanced the expression of these genes
- induction of ADRP mRNA after PPARβ/δ siRNA ([1]; 80% decrease in PPARβ/δ expression, ligand 0.1 μM, 4 hr): significantly hampered
- induction of ADRP mRNA after FABP5 siRNA ([1]; about 80% decrease in FABP5 protein): markedly attenuated
- expression of mRNA of PPARβ/δ target genes FIAF, ADRP and PDK-1 ([1]; ligand 0.1 μM, 4 hr): upregulated the expression of mRNA for all three
- expression of mRNA for CYP26α (RAR target gene Cyp26α): efficiently upregulated
- hepatic lipid accumulation (steatosis) ([7]; livers of mice fed a high fat diet and treated with RA): all but devoid of lipid stores
- weight of fat tissue (white adipose tissue) [7, 8]: decreased by over two fold
- weights of liver, skeletal muscle or brown adipose tissue (BAT) [7, 8]: without affecting
- food consumption ([7]; obese mice on high fat diet, RA treated vs non-treated cohort): higher than that of the non-treated cohort
- loss of body weight ([7]; obese mice on high fat/high sucrose diet, five week RA treatment, 0.16 mg/day systemic): ~15%

Structure (SMILES): C/C(=C\c1ccc(C(=O)O)cc1)c1ccc2c(c1)C(C)(C)CCC2(C)C [TTNPB, 4-[(E)-2-(5,6,7,8-Tetrahydro-5,5,8,8-tetramethyl-2-naphthalenyl)-1-propenyl]benzoic acid]
- expression of FIAF and PDK1 mRNA [6]: down-regulation of the two genes
- expression of mRNA of PPARβ/δ target genes FIAF, ADRP and PDK-1 ([1]; ligand 0.1 μM, 4 hr): little effect

Structure (SMILES): CCCCCCCCCCCCCCCCCC(=O)O [stearic acid]
- subcellular distribution of GFP-FABP5 (nuclear/cytoplasmic) (GFP-FABP5): did not affect the subcellular distribution
